Experimental data: ChEMBL document CHEMBL5442379, “ASAP - SARS-CoV-2 nsp3 macrodomain single point” (2024)

Target: Replicase polyprotein 1ab (Severe acute respiratory syndrome coronavirus 2) (UniProt P0DTD1)
Description: Functional biochemical assay to identify treatments for viral infectious disease that targets SARS-COV-2 nsp3 macrodomain, whereby the mechanism of action displaces an ADP-Ribose modified peptide from the binding site. Utilizing a time-resolved fluorescence method to measure binding by reading the emitted fluorescence intensity in two wavelengths.

CN(c1ncnc2[nH]ncc12)[C@@H](CCO)c1ccccc1
inhibition (Concentration 49.75 uM, Number of replicates 2.0, Standard deviation 10.225 %): 8.86% | inhibition (Concentration 99.5 uM, Number of replicates 2.0, Standard deviation 3.705 %): 5.14%

COCc1nc(CNc2ncc3c(n2)COC3)cs1
inhibition (Concentration 50.0 uM, Number of replicates 2.0, Standard deviation 8.324 %): -7.14%

CC1(C)CNCCN1C(=O)c1ccc(NC(=O)Nc2ccccc2)cc1
inhibition (Concentration 49.75 uM, Number of replicates 2.0, Standard deviation 5.654 %): 2.24% | inhibition (Concentration 99.5 uM, Number of replicates 2.0, Standard deviation 1.022 %): 1.39%

CO[C@@H]1CCCN(C(=O)c2cnn3ccc(C4CCN(C(=O)c5ccccc5)CC4)cc23)C1
inhibition (Concentration 49.75 uM, Number of replicates 2.0, Standard deviation 1.69 %): 22.6% | inhibition (Concentration 99.5 uM, Number of replicates 2.0, Standard deviation 3.272 %): 39.8%

O=C(Nc1ccccc1)Nc1ccc(C(=O)Nc2ncccc2F)cc1
inhibition (Concentration 49.75 uM, Number of replicates 2.0, Standard deviation 1.252 %): 4.59% | inhibition (Concentration 99.5 uM, Number of replicates 2.0, Standard deviation 5.725 %): 10.2%

O=C(Cc1ccns1)Nc1ncnc2[nH]cnc12
inhibition (Concentration 49.75 uM, Number of replicates 2.0, Standard deviation 7.374 %): -9.5% | inhibition (Concentration 99.5 uM, Number of replicates 2.0, Standard deviation 4.303 %): -3.24%

Cc1nc(NC(=O)[C@@H]2CCCOC2)c2ccnc-2[nH]1
inhibition (Concentration 50.0 uM, Number of replicates 2.0, Standard deviation 1.269 %): -3.2%

c1nc(N2CC[C@@H](n3cncn3)C2)c2cc[nH]c2n1
inhibition (Concentration 50.0 uM, Number of replicates 2.0, Standard deviation 1.464 %): -1.54%

Cc1n[nH]cc1CN(C)C(=O)c1ccc(NC(=O)Nc2ccccc2)cc1
inhibition (Concentration 49.75 uM, Number of replicates 2.0, Standard deviation 4.474 %): -3.77% | inhibition (Concentration 99.5 uM, Number of replicates 2.0, Standard deviation 2.774 %): -0.031%

CC1OCCC1(O)CNC(=O)c1ncnc2[nH]ccc12 (configuration not stated)
inhibition (Concentration 50.0 uM, Number of replicates 2.0, Standard deviation 4.016 %): 1.86%

Cn1c(C(=O)N(CCC(=O)N2CCNCC2)Cc2cccc(Cl)c2)cnc1O
inhibition (Concentration 49.75 uM, Number of replicates 2.0, Standard deviation 0.601 %): -4.76% | inhibition (Concentration 99.5 uM, Number of replicates 2.0, Standard deviation 2.256 %): -2.76%

O=C(c1ccccc1)N1CCC(c2ccn3ncc(C(=O)N4CCCC[C@H](O)C4)c3c2)CC1
inhibition (Concentration 49.75 uM, Number of replicates 2.0, Standard deviation 40.732 %): 17.8% | inhibition (Concentration 99.5 uM, Number of replicates 2.0, Standard deviation 41.407 %): 29.8%

CCn1cc(CNc2cc3c(O)ncnc3cn2)nn1
inhibition (Concentration 50.0 uM, Number of replicates 2.0, Standard deviation 1.563 %): 1.67%

Clc1cnc(N2CCN(c3ncnc4[nH]ccc34)CC2)c(Cl)c1
inhibition (Concentration 50.0 uM, Number of replicates 2.0, Standard deviation 0.674 %): -2% | inhibition (Concentration 100.0 uM, Number of replicates 2.0, Standard deviation 2.989 %): -6.57%

Cn1cc([C@@H](Nc2ncnc3[nH]ccc23)c2ccccc2)cn1
inhibition (Concentration 49.75 uM, Number of replicates 2.0, Standard deviation 1.638 %): 20% | inhibition (Concentration 99.5 uM, Number of replicates 2.0, Standard deviation 1.226 %): 39.3%

Cn1nc(NC(=O)c2cc3nccn3c(=O)[nH]2)c2nccnc21
inhibition (Concentration 50.0 uM, Number of replicates 2.0, Standard deviation 4.143 %): -1.91%

O=C(CCN(Cc1cccc(Cl)c1)C(=O)c1ncccc1Cl)N1CCNCC1
inhibition (Concentration 49.75 uM, Number of replicates 2.0, Standard deviation 1.117 %): 2.75% | inhibition (Concentration 99.5 uM, Number of replicates 2.0, Standard deviation 8.572 %): 7.52%

O=C(Nc1ccccc1)Nc1ccc(C(=O)NCc2ccnc(F)c2)cc1
inhibition (Concentration 49.75 uM, Number of replicates 2.0, Standard deviation 0.77 %): -0.36% | inhibition (Concentration 99.5 uM, Number of replicates 2.0, Standard deviation 1.377 %): 4.92%

Cc1nn(Cc2ccccc2)c(C)c1CNc1ncnc2[nH]ncc12
inhibition (Concentration 50.0 uM, Number of replicates 2.0, Standard deviation 2.858 %): -1.75%

Cc1nc2cnccn2c1NC(=O)c1cc(-c2ccco2)[nH]n1
inhibition (Concentration 50.0 uM, Number of replicates 2.0, Standard deviation 2.08 %): -3.88%

O=C(c1c[nH]c(=O)cn1)N1CCC(c2ccn3ncc(C(=O)N4CCCCC4)c3c2)CC1
inhibition (Concentration 99.5 uM, Number of replicates 2.0, Standard deviation 1.433 %): 45.8%

COC[C@@H](Nc1ncnc2nc[nH]c12)c1ccc(C)o1
inhibition (Concentration 49.75 uM, Number of replicates 2.0, Standard deviation 2.621 %): -4.64% | inhibition (Concentration 99.5 uM, Number of replicates 2.0, Standard deviation 0.049 %): 3.94%

CCn1cc(CNc2nc3[nH]cnc3c(=O)[nH]2)nn1
inhibition (Concentration 50.0 uM, Number of replicates 2.0, Standard deviation 3.758 %): -0.991%

Cc1nc(C(=O)N2CCC(c3ccn4ncc(C(=O)N5CCCCC5)c4c3)CC2)c(C)[nH]1
inhibition (Concentration 49.75 uM, Number of replicates 2.0, Standard deviation 0.064 %): 16.8% | inhibition (Concentration 99.5 uM, Number of replicates 2.0, Standard deviation 4.92 %): 27.5%

O=C(CCN(Cc1cccc(Cl)c1)C(=O)[C@H]1C[C@H](O)C1)N1CCNCC1
inhibition (Concentration 49.75 uM, Number of replicates 2.0, Standard deviation 2.648 %): -2.13% | inhibition (Concentration 99.5 uM, Number of replicates 2.0, Standard deviation 5.781 %): -3.77%

Cc1cc(C(=O)N2CCC(c3ccn4ncc(C(=O)N5CCCCC5)c4c3)CC2)[nH]n1
inhibition (Concentration 49.75 uM, Number of replicates 2.0, Standard deviation 4.639 %): 16.6% | inhibition (Concentration 99.5 uM, Number of replicates 2.0, Standard deviation 3.947 %): 31.6%
